In the supplement of paper PMC10307832:

Each cell line was assayed with CCN1CCN(c2ccc(Nc3cc(N(C)C(=O)Nc4c(Cl)c(OC)cc(OC)c4Cl)ncn3)cc2)CC1 [BGJ398] + Cc1nc(Nc2ncc(C(=O)Nc3c(C)cccc3Cl)s2)cc(N2CCN(CCO)CC2)n1 [Dasatinib] (partner 0.075 µM) (assay: relative viability (nuclei count vs DMSO), 5 days (fraction); higher = more cells survive). Settings: first compound 0.01 µM.
In short: (§1)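 Relative viability is defined as nuclei in treated wells over nuclei in vehicle wells. Duplicate plates were run and medians reported. Lung cancer cell lines in 1536-well plates were dosed by pin tool one day after seeding, with one drug or with a fixed anchor-drug dose plus five library-drug doses (not always all listed) in √10 steps, and nuclei were counted after 5 days.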

| Cell Line | relative viability |
| --- | --- |
| COR-L23 | 0.474 |
| COR-L 105 | 0.275 |
| LOU-NH91 | 0.522 |
| ChaGo-K-1 | 0.598 |
| NCI-H2405 | 0.213 |
| HOP-62 | 0.745 |
| LU99A | 0.569 |
| BEN | 0.349 |
| HARA | 0.26 |
| HCC-78 | 0.385 |
| NCI-H322M | 0.268 |
| LCLC-97TM1 | 0.671 |
| NCI-H2009 | 0.275 |
| A-427 | 0.656 |
| NCI-H441 | 0.577 |
| NCI-H661 | 0.835 |
| NCI-H1734 | 0.443 |
| NCI-H460 | 0.479 |
| NCI-H2347 | 0.314 |
| SK-LU-1 | 0.173 |
| 201T | 0.582 |
| NCI-H1915 | 0.308 |
| HCC-827 | 0.223 |
| LXF-289 | 0.194 |
| NCI-H23 | 0.776 |
| NCI-H647 | 0.164 |

Same assay, conditions: first compound 0.03162 µM

| Cell Line | relative viability |
| --- | --- |
| COR-L23 | 0.527 |
| COR-L 105 | 0.279 |
| ChaGo-K-1 | 0.582 |
| NCI-H2405 | 0.236 |
| HOP-62 | 0.656 |
| LU99A | 0.487 |
| BEN | 0.298 |
| HARA | 0.196 |
| HCC-78 | 0.375 |
| NCI-H322M | 0.227 |
| LCLC-97TM1 | 0.92 |
| NCI-H2009 | 0.311 |
| A-427 | 0.694 |
| NCI-H441 | 0.83 |
| NCI-H661 | 0.854 |
| NCI-H1734 | 0.53 |
| NCI-H460 | 0.523 |
| NCI-H2347 | 0.291 |
| SK-LU-1 | 0.19 |
| 201T | 0.557 |
| NCI-H1915 | 0.306 |
| HCC-827 | 0.123 |
| LXF-289 | 0.218 |
| NCI-H23 | 0.834 |
| NCI-H647 | 0.188 |

Same assay, conditions: first compound 0.1 µM

| Cell Line | relative viability |
| --- | --- |
| H3255 | 0.41 |
| COR-L23 | 0.571 |
| COR-L 105 | 0.371 |
| LOU-NH91 | 0.59 |
| ChaGo-K-1 | 0.613 |
| NCI-H2405 | 0.233 |
| HOP-62 | 0.678 |
| LU99A | 0.518 |
| BEN | 0.331 |
| HARA | 0.227 |
| HCC-78 | 0.34 |
| NCI-H322M | 0.227 |
| LCLC-97TM1 | 0.773 |
| NCI-H2009 | 0.295 |
| A-427 | 0.674 |
| NCI-H441 | 0.542 |
| NCI-H661 | 0.897 |
| NCI-H1734 | 0.514 |
| NCI-H460 | 0.46 |
| NCI-H2347 | 0.342 |
| SK-LU-1 | 0.142 |
| 201T | 0.5 |
| NCI-H1915 | 0.309 |
| HCC-827 | 0.329 |
| LXF-289 | 0.184 |
| NCI-H23 | 0.844 |
| NCI-H647 | 0.178 |

Same assay, conditions: first compound 0.3162 µM

| Cell Line | relative viability |
| --- | --- |
| H3255 | 0.274 |
| COR-L23 | 0.464 |
| COR-L 105 | 0.307 |
| LOU-NH91 | 0.459 |
| ChaGo-K-1 | 0.545 |
| NCI-H2405 | 0.225 |
| HOP-62 | 0.733 |
| LU99A | 0.321 |
| BEN | 0.252 |
| HARA | 0.232 |
| HCC-78 | 0.388 |
| NCI-H322M | 0.262 |
| LCLC-97TM1 | 0.646 |
| NCI-H2009 | 0.329 |
| A-427 | 0.348 |
| NCI-H441 | 0.672 |
| NCI-H661 | 0.79 |
| NCI-H1734 | 0.425 |
| NCI-H460 | 0.522 |
| NCI-H2347 | 0.278 |
| SK-LU-1 | 0.153 |
| 201T | 0.566 |
| NCI-H1915 | 0.295 |
| HCC-827 | 0.249 |
| LXF-289 | 0.254 |
| NCI-H23 | 0.792 |
| NCI-H647 | 0.178 |

Same assay, conditions: first compound 1 µM

| Cell Line | relative viability |
| --- | --- |
| H3255 | 0.353 |
| COR-L23 | 0.456 |
| COR-L 105 | 0.276 |
| LOU-NH91 | 0.522 |
| ChaGo-K-1 | 0.627 |
| NCI-H2405 | 0.192 |
| HOP-62 | 0.57 |
| LU99A | 0.409 |
| BEN | 0.26 |
| HARA | 0.151 |
| HCC-78 | 0.362 |
| NCI-H322M | 0.236 |
| LCLC-97TM1 | 0.921 |
| NCI-H2009 | 0.297 |
| A-427 | 0.598 |
| NCI-H441 | 0.607 |
| NCI-H661 | 0.746 |
| NCI-H1734 | 0.468 |
| NCI-H460 | 0.498 |
| NCI-H2347 | 0.262 |
| SK-LU-1 | 0.13 |
| 201T | 0.514 |
| NCI-H1915 | 0.261 |
| HCC-827 | 0.325 |
| LXF-289 | 0.156 |
| NCI-H23 | 0.748 |
| NCI-H647 | 0.0946 |

Each cell line was assayed with C1=CC2=NC=CN=C2C=C1/C=C/3\C(=O)NC(=O)S3 + Nc1nc2[nH]cc(CCc3ccc(C(=O)N[C@@H](CCC(=O)O)C(=O)O)cc3)c2c(=O)[nH]1 [Pemetrexed] (partner 0.2 µM) in the same assay as above. Settings: first compound 0.02 µM.
In short: as §1

| Cell Line | relative viability |
| --- | --- |
| H3255 | 0.532 |
